# Results taken from patent publication US7323461B2, “Use of methylene blue and related compounds to prevent or reverse an exaggerated hemodynamic reaction” (Montreal Heart Institute, priority 2002, dated 2008).
# “Also recorded” adds a separate entry of the source.
# Experiments:
# [1] = humans, dosages above 2 mg/kg; cited from earlier work
# [2] = Hemodynamic effects of methylene blue on hypotensive dogs (same procedure as for pigs); type: in vivo, dog; settings: same procedure as pigs: sildenafil citrate, nitroglycerin bolus
# Experimental: (§1) Pigs weighing between 20 and 25 kg were anesthetized in accordance with the standard procedure of the Canadian Council on Animal Care Regulations. After baseline hemodynamic measurements, the left circumflex (LCX) artery was occluded using a catheter balloon so as to mimic the condition of patients with cardiovascular disease. As soon as the animal was stable, a bolus injection of nitroglycerin (0.2 mg) was given intravenously in order to observe the effect of nitroglycerin alone on the animal. The animal's blood pressure was allowed to return to normal, and the animal was given 100 mg of sildenafil citrate via an esophagus tube. One hour after the administration of sildenafil citrate, a bolus injection of 0.2 mg of nitroglycerin was given to the animal in order to observe the combined effect of […] and nitroglycerin on the animal. When the animal's blood pressure returned to normal, a second 0.2 mg bolus injection of nitroglycerin was given along with a bolus of MB (3 mg/kg). Blood pressure and heart rate were monitored throughout the procedure.
# The procedure used was the same as that for pigs. (See EXAMPLE 1, above.) The experiments were conducted on dogs to see what effect the combination of a phosphodiesterase inhibitor and an organic nitrate would have on an animal with a greater number of collaterals than the pig. […]
# [3] = Hemodynamic effects of methylene blue on hypotensive pigs (LCX artery occluded, sildenafil citrate plus nitroglycerin); type: in vivo, pig; settings: LCX balloon occlusion, 100 mg sildenafil citrate via esophagus tube, 0.2 mg nitroglycerin i.v. bolus along with MB bolus 3 mg/kg
# Experimental: as §1
smiles,measurement,setting,value
"CN(C)c1ccc2nc3ccc(N(C)C)cc3[s+]c2c1.[Cl-] [MB, 3,7-bis(dimethylamino)phenothiazin-5-ium chloride]",respiratory problems at high dosage,[1],can lead to respiratory problems in humans
same,changes in time in systolic blood pressure after nitroglycerin injection with MB,[2],"A drop in blood pressure is less pronounced, and there is more rapid recovery time, than without MB; also recorded: MB effectively increased the blood pressure in the animals tested"
same,changes in time in systolic blood pressure after nitroglycerin injection with MB,[3],Pressure recovery was much more rapid in the presence of MB; also recorded: beneficial effects of MB may be seen; also recorded: effectiveness of MB in increasing the blood pressure
